Reference: patent publication US9499519B2, “Fused pyrimidine compounds and use thereof” (Medivation Technologies, Inc., priority 2012, dated 2016)

Legend:
Type in all cases: biochemical
Trk B = Trk B (Homo sapiens, UniProt Q16620); test: HotSpot kinase assay: Trk B; settings: 100 nM compound; for inhibition at 0.1 µM: read-out: % Enzyme Inhibition @ 100 nM Trk B
Protocol: (§1) Each compound was tested at a concentration of 0.1 μM in single duplicate mode against the 3 kinases. Compounds were prepared as 10 mM stock solutions in DMSO prior to use in the assay. […] IC50 values and curve fits were obtained using Prism (GraphPad Software).
(§2) The screening was performed using the “HotSpot” assay platform. The assay measures the conversion of a peptide substrate to ^33P-labelled phosphorylated product. Briefly, specific kinase/substrate pairs along with required cofactors were prepared in reaction buffer. Specifically, the substrate was prepared in reaction buffer (20 mM Hepes, pH 7.5; 10 mM MgCl2; 1 mM EGTA; 0.02% Brij35; 0.02 mg/mL BSA; 0.1 mM Na3VO4; 2 mM DTT; 1% DMSO), followed by delivery of any required cofactor to the resulting substrate solution. The corresponding kinase was delivered into the substrate solution and the reaction mixture was mixed gently. Compound was delivered into the reaction mixture, followed 15-20 minutes later by addition of a mixture of ATP (Sigma, St. Louis Mo.) and ^33P ATP (specific activity 0.01 μCi/μL final; Perkin Elmer, Waltham, Mass.) to a final concentration of 10 μM-30 μM to initiate the reaction. […] The percent of enzyme inhibition was calculated based on the percent of remaining kinase activity.

Trk A = Trk A (Homo sapiens, UniProt P04629); test: HotSpot kinase assay: Trk A; settings: 100 nM compound; for inhibition at 0.1 µM: read-out: % Enzyme Inhibition @ 100 nM Trk A
Protocol: as §1, with “Kinase assays were performed using additional compounds against a panel of 3 kinases: Trk A; Trk B; and Trk C. Each” for “Each”, “Software). […]” for “Software).”
The screening was performed using the “HotSpot” assay platform. The assay measures the conversion of a peptide substrate to ^33P-labelled phosphorylated product. Briefly, specific kinase/substrate pairs along with required cofactors were prepared in reaction buffer. Specifically, the substrate was prepared in reaction buffer (20 mM Hepes, pH 7.5; 10 mM MgCl2; 1 mM EGTA; 0.02% Brij35; 0.02 mg/mL BSA; 0.1 mM Na3VO4; 2 mM DTT; 1% DMSO), followed by delivery of any required cofactor to the resulting substrate solution. The corresponding kinase was delivered into the substrate solution and the reaction mixture was mixed gently. Compound was delivered into the reaction mixture, followed 15-20 minutes later by addition of a mixture of ATP (Sigma, St. Louis Mo.) and ^33P ATP (specific activity 0.01 μCi/μL final; Perkin Elmer, Waltham, Mass.) to a final concentration of 10 μM-30 μM to initiate the reaction. Reactions were carried out at room temperature for 120 minutes, followed by spotting of the reactions onto P81 ion exchange filter paper (Whatman #3698-915; Whatman Inc., Piscataway, N.J.). Unbound phosphate was removed by extensive washing of filters in 0.75% phosphoric acid. […] The percent of enzyme inhibition was calculated based on the percent of remaining kinase activity.

IGF-1R = biological target: T1, IGF-1R (Homo sapiens, UniProt P08069); test: In vitro IGF-1R enzymatic assay (ADP-Glo kinase assay); settings: activated IGF-1R, 1 μM, in duplicate; read-out: inhibition of binding
T1 construct: purchased Millipore 14-802
Protocol: IC50 values of the compounds of the invention against IGF-1R and IR were measured in vitro using an ADP-Glo kinase assay Kit (Promega). […] Kinase reactions in both assays were conducted at 30° C. for 20 min with increasing concentrations of compounds of the invention.
Additional compounds of the invention were screened against activated IGF-1R.

IR = biological target: T2, IR (Homo sapiens, UniProt P06213); test: In vitro IR enzymatic assay (ADP-Glo kinase assay); settings: activated IR, in duplicate, read-out: inhibition of binding
T2 construct: purchased Millipore 14-803

Trk C = Trk C (Homo sapiens, UniProt Q16288); test: HotSpot kinase assay: Trk C; settings: 100 nM compound, HotSpot; for inhibition at 0.1 µM: read-out: % Enzyme Inhibition @ 100 nM Trk C
Protocol: as §1, §2
as §1, with “Kinase assays were performed using additional compounds against a panel of 4 kinases: AXL; c-Met; c-Mer; and Trk C. Each” for “Each”, “[…]” for “μM”, “4” for “3”

T2 sequence (P06213 28-1382): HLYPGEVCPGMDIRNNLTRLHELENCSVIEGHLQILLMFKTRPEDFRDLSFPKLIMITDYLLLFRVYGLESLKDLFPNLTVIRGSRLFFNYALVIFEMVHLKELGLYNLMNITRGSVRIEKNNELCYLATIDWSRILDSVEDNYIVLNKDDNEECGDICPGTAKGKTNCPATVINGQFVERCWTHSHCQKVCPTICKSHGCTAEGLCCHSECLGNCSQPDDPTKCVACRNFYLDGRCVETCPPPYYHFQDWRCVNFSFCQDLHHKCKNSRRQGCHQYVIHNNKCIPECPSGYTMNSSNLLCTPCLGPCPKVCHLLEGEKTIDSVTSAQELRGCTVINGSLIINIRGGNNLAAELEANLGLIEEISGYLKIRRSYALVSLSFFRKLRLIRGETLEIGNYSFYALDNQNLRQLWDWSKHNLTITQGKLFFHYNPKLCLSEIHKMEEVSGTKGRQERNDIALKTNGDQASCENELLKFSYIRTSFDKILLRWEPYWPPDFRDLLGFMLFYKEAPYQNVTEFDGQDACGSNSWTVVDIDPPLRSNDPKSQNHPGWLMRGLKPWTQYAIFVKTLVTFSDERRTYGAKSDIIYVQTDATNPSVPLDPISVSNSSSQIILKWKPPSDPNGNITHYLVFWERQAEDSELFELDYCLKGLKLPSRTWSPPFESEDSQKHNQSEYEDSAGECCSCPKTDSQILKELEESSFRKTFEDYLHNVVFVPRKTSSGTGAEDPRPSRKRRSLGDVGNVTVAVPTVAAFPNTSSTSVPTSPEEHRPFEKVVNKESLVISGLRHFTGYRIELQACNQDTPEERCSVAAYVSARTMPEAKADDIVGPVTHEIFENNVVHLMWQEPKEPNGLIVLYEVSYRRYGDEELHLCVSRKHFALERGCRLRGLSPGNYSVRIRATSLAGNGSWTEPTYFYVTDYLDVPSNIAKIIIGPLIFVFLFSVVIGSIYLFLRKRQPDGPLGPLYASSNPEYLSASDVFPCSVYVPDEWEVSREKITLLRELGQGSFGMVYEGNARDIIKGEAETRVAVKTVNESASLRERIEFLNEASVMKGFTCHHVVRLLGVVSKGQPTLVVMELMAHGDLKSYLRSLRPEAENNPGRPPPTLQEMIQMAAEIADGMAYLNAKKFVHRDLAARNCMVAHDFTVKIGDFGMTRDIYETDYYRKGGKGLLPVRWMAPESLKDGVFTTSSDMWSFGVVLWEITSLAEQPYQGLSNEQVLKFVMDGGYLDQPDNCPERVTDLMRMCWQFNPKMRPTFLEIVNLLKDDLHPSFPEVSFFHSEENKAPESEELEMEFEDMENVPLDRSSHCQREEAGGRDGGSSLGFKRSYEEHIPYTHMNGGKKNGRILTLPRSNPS
Chain of Trk C (Q16288 32-839): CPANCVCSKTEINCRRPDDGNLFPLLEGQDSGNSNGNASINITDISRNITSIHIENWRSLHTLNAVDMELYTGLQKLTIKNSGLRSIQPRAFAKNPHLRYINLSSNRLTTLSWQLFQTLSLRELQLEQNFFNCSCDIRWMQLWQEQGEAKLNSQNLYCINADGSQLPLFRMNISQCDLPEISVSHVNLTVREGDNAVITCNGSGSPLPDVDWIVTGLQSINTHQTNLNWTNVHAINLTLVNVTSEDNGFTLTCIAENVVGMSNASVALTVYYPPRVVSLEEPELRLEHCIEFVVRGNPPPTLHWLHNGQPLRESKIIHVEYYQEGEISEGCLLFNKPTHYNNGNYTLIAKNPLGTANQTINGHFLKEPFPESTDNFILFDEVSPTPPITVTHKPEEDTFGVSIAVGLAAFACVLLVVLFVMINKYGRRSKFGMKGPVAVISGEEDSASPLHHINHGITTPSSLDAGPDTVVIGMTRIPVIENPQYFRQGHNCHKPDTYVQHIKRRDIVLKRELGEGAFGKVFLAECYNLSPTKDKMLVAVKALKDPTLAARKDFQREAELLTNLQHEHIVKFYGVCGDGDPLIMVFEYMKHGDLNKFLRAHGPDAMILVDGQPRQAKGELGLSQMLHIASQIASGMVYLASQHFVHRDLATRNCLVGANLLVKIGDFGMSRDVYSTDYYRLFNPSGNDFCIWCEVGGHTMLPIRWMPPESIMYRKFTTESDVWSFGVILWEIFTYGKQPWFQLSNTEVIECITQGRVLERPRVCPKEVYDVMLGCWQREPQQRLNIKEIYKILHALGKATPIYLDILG
T1 sequence (P08069 31-1367): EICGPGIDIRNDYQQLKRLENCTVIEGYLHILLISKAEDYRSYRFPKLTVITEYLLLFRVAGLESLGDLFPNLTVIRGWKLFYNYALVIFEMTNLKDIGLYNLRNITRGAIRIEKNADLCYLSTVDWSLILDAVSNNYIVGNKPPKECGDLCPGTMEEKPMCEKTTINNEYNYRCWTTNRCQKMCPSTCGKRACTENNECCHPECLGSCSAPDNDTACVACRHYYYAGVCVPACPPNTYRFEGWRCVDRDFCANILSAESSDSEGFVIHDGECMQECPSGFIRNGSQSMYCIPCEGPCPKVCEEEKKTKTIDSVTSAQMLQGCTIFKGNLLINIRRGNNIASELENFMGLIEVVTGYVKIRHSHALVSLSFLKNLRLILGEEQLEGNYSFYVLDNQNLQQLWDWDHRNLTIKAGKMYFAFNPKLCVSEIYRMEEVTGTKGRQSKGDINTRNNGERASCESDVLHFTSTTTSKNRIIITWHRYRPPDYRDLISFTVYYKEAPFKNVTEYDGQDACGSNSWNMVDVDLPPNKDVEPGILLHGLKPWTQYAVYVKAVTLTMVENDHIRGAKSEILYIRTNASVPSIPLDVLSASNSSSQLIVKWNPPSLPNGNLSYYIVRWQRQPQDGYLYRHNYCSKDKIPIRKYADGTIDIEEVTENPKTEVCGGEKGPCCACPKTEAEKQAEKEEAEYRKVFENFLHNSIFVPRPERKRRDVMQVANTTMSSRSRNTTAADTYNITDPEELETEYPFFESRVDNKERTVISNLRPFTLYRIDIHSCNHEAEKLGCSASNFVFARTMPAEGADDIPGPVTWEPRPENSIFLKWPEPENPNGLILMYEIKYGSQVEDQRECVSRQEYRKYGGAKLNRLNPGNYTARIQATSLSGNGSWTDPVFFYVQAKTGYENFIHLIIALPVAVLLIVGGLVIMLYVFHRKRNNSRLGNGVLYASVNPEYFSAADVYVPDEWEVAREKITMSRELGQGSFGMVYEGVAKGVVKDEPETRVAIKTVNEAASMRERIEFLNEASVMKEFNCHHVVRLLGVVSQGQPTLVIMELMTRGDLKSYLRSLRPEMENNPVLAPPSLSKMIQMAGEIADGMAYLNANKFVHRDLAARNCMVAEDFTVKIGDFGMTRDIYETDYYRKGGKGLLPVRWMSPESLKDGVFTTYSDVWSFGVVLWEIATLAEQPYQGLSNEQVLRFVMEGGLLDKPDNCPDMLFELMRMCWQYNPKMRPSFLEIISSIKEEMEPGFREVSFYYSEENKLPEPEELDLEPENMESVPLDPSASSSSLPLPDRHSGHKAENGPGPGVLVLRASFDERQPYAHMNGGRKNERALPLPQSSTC
Chain of Trk A (P04629 33-796): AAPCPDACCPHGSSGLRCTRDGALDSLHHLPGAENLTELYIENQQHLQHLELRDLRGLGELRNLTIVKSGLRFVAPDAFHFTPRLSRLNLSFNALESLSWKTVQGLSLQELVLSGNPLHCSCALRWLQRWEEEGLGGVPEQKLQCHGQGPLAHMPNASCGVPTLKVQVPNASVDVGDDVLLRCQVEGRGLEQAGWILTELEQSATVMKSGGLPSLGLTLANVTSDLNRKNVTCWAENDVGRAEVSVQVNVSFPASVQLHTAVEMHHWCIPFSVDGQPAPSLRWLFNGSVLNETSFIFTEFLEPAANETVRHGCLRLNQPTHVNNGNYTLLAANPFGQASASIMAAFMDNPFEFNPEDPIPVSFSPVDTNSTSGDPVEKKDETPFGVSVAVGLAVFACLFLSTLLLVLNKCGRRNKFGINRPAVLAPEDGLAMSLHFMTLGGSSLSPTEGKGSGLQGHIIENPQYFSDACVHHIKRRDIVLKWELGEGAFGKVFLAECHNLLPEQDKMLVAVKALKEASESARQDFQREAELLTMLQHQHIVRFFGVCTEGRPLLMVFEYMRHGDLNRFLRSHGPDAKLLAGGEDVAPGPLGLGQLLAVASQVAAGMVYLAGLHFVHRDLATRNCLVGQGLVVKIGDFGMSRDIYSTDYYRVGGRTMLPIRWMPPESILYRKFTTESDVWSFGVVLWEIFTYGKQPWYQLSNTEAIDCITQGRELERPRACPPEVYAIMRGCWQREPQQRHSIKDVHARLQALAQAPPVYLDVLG
Chain of Trk B (Q16620 32-822): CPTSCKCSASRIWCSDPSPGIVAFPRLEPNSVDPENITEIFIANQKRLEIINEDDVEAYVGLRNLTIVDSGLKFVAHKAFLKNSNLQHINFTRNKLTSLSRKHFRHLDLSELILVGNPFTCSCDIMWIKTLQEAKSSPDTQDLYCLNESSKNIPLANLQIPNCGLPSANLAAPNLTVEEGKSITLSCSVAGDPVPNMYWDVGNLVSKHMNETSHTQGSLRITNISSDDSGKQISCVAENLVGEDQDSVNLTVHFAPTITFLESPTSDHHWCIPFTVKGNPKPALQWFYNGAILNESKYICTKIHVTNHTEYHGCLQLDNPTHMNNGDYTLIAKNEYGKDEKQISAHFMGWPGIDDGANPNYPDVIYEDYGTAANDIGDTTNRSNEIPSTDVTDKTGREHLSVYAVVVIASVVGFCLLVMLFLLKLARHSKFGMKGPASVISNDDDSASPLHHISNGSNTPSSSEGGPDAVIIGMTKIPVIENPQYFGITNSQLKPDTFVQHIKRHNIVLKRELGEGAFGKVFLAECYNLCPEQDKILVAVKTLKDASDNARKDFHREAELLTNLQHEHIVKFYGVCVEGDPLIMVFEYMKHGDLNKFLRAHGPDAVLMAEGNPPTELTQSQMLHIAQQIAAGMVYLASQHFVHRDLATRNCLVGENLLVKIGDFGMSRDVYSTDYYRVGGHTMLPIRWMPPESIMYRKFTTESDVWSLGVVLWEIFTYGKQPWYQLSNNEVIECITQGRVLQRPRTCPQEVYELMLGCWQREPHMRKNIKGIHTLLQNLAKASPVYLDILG

| SMILES | % Enzyme Inhibition @ 100 nM Trk B (Trk B) | % Enzyme Inhibition @ 100 nM Trk A (Trk A) | inhibition at 1 µM (IGF-1R) | inhibition at 1 µM (IR) | % Enzyme Inhibition @ 100 nM Trk C (Trk C) | inhibition at 0.1 µM (Trk B) | inhibition at 0.1 µM (Trk A) | inhibition at 0.1 µM (Trk C) |
| --- | --- | --- | --- | --- | --- | --- | --- | --- |
| O=C(C1CC(O)CN1c1nc2c(c(Nc3cc(C4CCCC4)[nH]n3)n1)CCC2)N1CCCCC1 (centres unmarked) [Compound 108a, (1-(4-(5-cyclopentyl-1H-pyrazol-3-ylamino)-6,7-dihydro-5H-cyclopenta[d]pyrimidin-2-yl)-4-hydroxypyrrolidin-2-yl)(piperidin-1-yl)methanone] | +++ (High (60% or higher inhibition, +++)) | + (Low (39% or lower inhibition, +)) | < 35% | ≤ 40% | +++ (High (60% or higher inhibition, +++)) |  |  |  |
| CN(C)C(=O)C1CC(O)CN1c1nc2c(c(Nc3cc(C4CCCC4)[nH]n3)n1)CCC2 (centres unmarked) [Compound 110b, 1-(4-(5-cyclopentyl-1H-pyrazol-3-ylamino)-6,7-dihydro-5H-cyclopenta[d]pyrimidin-2-yl)-4-hydroxy-N,N-dimethylpyrrolidine-2-carboxamide] |  |  |  |  |  | < 39% | < 39% | 40 to 59% |
| CC(C)c1cc(Nc2nc(N3CC(O)CC3C(=O)N3CCCCC3)nc3c2CCC3)n[nH]1 (centres unmarked) [Compound 107a, (4-hydroxy-1-(4-(5-isopropyl-1H-pyrazol-3-ylamino)-6,7-dihydro-5H-cyclopenta[d]pyrimidin-2-yl)pyrrolidin-2-yl)(piperidin-1-yl)methanone] | ++ (Medium (40 to 59% inhibition, ++)) | + (Low (39% or lower inhibition, +)) | < 35% | ≤ 40% | +++ (High (60% or higher inhibition, +++)) |  |  |  |
| CN(C)C(=O)C1CCCN1c1nc2c(c(Nc3cc(C4CCCCC4)[nH]n3)n1)CCC2 (centres unmarked) [Compound 114a, 1-(4-(5-cyclohexyl-1H-pyrazol-3-ylamino)-6,7-dihydro-5H-cyclopenta[d]pyrimidin-2-yl)-N,N-dimethylpyrrolidine-2-carboxamide] | ++ (Medium (40 to 59% inhibition, ++)) | ++ (Medium (40 to 59% inhibition, ++)) | < 35% | ≤ 40% | ++ (Medium (40 to 59% inhibition, ++)) |  |  |  |
| O=C(C1CCCN1c1nc2c(c(Nc3cc(C4CCCC4)[nH]n3)n1)CCC2)N1CCCCC1 (centres unmarked) [Compound 111a, (1-(4-(5-cyclopentyl-1H-pyrazol-3-ylamino)-6,7-dihydro-5H-cyclopenta[d]pyrimidin-2-yl)pyrrolidin-2-yl)(piperidin-1-yl)methanone] |  |  | < 35% | ≤ 40% |  | > 60% | 40 to 59% | > 60% |
| O=C(C1CCCN1c1nc2c(c(Nc3cc(C4CCCCC4)[nH]n3)n1)CCC2)N1CCCCC1 (centres unmarked) [Compound 113a, (1-(4-(5-cyclohexyl-1H-pyrazol-3-ylamino)-6,7-dihydro-5H-cyclopenta[d]pyrimidin-2-yl)pyrrolidin-2-yl)(piperidin-1-yl)methanone] | + (Low (39% or lower inhibition, +)) | ++ (Medium (40 to 59% inhibition, ++)) | < 35% | ≤ 40% | ++ (Medium (40 to 59% inhibition, ++)) |  |  |  |
| CN(C)C(=O)C1CC(O)CN1c1nc2c(c(Nc3cc(C4CCCC4)[nH]n3)n1)CCC2 (centres unmarked) [Compound 110a, 1-(4-(5-cyclopentyl-1H-pyrazol-3-ylamino)-6,7-dihydro-5H-cyclopenta[d]pyrimidin-2-yl)-4-hydroxy-N,N-dimethylpyrrolidine-2-carboxamide] | ++ (Medium (40 to 59% inhibition, ++)) | + (Low (39% or lower inhibition, +)) | < 35% | ≤ 40% | +++ (High (60% or higher inhibition, +++)) |  |  |  |
| CC(C)c1cc(Nc2nc(N3CC(O)CC3C(=O)N(C)C)nc3c2CCC3)n[nH]1 (centres unmarked) [Compound 109a, 4-hydroxy-1-(4-(5-isopropyl-1H-pyrazol-3-ylamino)-6,7-dihydro-5H-cyclopenta[d]pyrimidin-2-yl)-N,N-dimethylpyrrolidine-2-carboxamide] |  |  | < 35% | ≤ 40% |  | < 39% | < 39% | < 39% |
| CCN(CC)C(=O)C1CCCN1c1nc2c(c(Nc3cc(C4CCCC4)[nH]n3)n1)CCC2 (centres unmarked) [Compound 116a, 1-(4-(5-cyclopenxyl-1H-pyrazol-3-ylamino)-6,7-dihydro-5H-cyclopenta[d]pyrimidin-2-yl)-N,N-diethylpyrrolidine-2-carboxamide] |  |  | < 35% | ≤ 40% |  | > 60% | < 39% | > 60% |
| O=C(C1CCCN1c1nc2c(c(Nc3cc(C4CCCC4)[nH]n3)n1)CCC2)N1CCCC1 (centres unmarked) [Compound 112a, (1-(4-(5-cyclopentyl-1H-pyrazol-3-ylamino)-6,7-dihydro-5H-cyclopenta[d]pyrimidin-2-yl)pyrrolidin-2-yl)(pyrrolidin-1-yl)methanone] |  |  | < 35% | ≤ 40% |  | > 60% | > 60% | > 60% |
| O=C(C1CC(O)CN1c1nc2c(c(Nc3cc(C4CCCC4)[nH]n3)n1)CCC2)N1CCCCC1 (centres unmarked) [Compound 108b, (1-(4-(5-cyclopentyl-1H-pyrazol-3-ylamino)-6,7-dihydro-5H-cyclopenta[d]pyrimidin-2-yl)-4-hydroxypyrrolidin-2-yl)(piperidin-1-yl)methanone] |  |  |  |  |  | 40 to 59% | 40 to 59% | > 60% |
| CN(C)C(=O)C1CCCN1c1nc2c(c(Nc3cc(C4CCCCC4)[nH]n3)n1)CCC2 (centres unmarked) [Compound 114b, 1-(4-(5-cyclohexyl-1H-pyrazol-3-ylamino)-6,7-dihydro-5H-cyclopenta[d]pyrimidin-2-yl)-N,N-dimethylpyrrolidine-2-carboxamide] |  |  |  |  |  | > 60% | < 39% | > 60% |
| CN(C)C(=O)C1CCCN1c1nc2c(c(Nc3cc(C4CCCC4)[nH]n3)n1)CCC2 (centres unmarked) [Compound 115a, 1-(4-(5-cyclopentyl-1H-pyrazol-3-ylamino)-6,7-dihydro-5H-cyclopenta[d]pyrimidin-2-yl)-N,N-dimethylpyrrolidine-2-carboxamide] |  |  | < 35% | ≤ 40% |  | > 60% | < 39% | > 60% |
